Results published in patent US9193722B2, “Tri-cyclic pyrazolopyridine kinase inhibitors” (Vertex Pharmaceuticals Incorporated, priority 2008, dated 2015).

What was measured:
Format in all cases: biochemical
PKC theta kinase = PKC theta kinase (Homo sapiens, UniProt Q04759); assay: PKC theta kinase inhibition, coupled-enzyme (NADH absorbance) assay, Ki; conditions: 240 μM ATP, 18 nM PKC theta kinase, 30° C.
Outline: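 Enzyme and compound equilibrated 10 min at 30 °C before reaction in HEPES pH 7.5 buffer with MgCl2, NaCl, EDTA and Brij. Activity tracked as NADH loss at 340 nm through a coupled system. Initial-rate data fitted by non-linear regression to give Ki.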

PKC alpha kinase = PKC alpha kinase (Homo sapiens, UniProt P17252); assay: PKC alpha kinase inhibition, coupled-enzyme (NADH absorbance) assay, Ki; conditions: 130 μM ATP, 4.5 nM PKC alpha kinase, 30° C.
Outline: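 Ki derived by non-linear regression of initial rates from a coupled assay tracking NADH absorbance at 340 nm over 15 min at 30 °C. ATP was 130 μM final after a 10 min compound–enzyme preincubation in HEPES pH 7.5 buffer with MgCl2, CaCl2, NaCl, EDTA and Brij.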

PKC delta kinase = PKC delta kinase (Homo sapiens, UniProt Q05655); assay: PKC delta kinase inhibition, coupled-enzyme (NADH absorbance) assay, Ki; conditions: 150 μM ATP, 46 nM PKC delta kinase, 30° C.; read-out: Ki PKC delta
PKC delta kinase, sequence (Q05655 whole entry): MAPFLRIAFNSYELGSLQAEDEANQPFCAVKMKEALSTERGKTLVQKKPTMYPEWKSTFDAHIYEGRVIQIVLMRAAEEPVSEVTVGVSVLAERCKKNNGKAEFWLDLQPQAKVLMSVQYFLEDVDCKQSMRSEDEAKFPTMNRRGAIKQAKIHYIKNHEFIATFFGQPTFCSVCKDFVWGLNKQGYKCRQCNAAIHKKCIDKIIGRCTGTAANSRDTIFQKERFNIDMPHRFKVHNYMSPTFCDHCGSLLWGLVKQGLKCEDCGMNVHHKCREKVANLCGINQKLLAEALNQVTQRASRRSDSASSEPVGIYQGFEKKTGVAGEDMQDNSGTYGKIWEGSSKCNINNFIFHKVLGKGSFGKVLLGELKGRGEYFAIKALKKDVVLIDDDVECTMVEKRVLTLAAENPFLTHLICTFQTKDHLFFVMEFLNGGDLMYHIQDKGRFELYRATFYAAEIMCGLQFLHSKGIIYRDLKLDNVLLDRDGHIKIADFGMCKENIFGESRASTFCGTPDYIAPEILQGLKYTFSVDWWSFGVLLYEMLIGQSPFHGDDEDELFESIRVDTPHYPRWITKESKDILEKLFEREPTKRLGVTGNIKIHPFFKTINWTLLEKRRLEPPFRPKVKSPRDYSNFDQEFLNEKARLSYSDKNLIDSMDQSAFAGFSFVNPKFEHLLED
Outline: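 Enzyme and compound pre-equilibrated 10 min at 30° C before adding ATP to 150 μM final. Buffer: HEPES pH 7.5 (100 mM), 10 mM MgCl2, 25 mM NaCl, 0.1 mM EDTA, 0.01% Brij.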

PKC theta kinase, sequence (Q04759 whole entry): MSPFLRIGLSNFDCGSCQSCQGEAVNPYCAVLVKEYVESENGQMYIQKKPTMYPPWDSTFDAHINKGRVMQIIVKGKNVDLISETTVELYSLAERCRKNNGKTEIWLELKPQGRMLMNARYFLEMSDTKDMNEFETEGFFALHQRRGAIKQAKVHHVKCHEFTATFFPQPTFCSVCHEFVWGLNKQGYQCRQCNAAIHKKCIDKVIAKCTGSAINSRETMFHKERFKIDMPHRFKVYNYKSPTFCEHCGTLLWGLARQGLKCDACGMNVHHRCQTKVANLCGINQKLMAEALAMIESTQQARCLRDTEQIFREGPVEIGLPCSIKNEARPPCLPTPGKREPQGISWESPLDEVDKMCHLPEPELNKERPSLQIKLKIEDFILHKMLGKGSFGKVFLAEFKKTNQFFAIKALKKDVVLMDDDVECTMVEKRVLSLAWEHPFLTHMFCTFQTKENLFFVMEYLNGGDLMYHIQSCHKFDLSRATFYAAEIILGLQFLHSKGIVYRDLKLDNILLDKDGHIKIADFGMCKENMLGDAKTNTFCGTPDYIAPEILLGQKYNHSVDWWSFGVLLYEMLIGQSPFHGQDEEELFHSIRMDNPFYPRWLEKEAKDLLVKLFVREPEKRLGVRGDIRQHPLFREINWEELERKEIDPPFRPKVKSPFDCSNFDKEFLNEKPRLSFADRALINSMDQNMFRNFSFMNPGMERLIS

SMILES | Ki (PKC theta kinase) [µM] | Ki (PKC alpha kinase) [µM] | Ki (PKC delta kinase) [µM]
NC1CCN(c2ccc(Cl)c(-c3n[nH]c4ncccc34)n2)CC1 [Compound 110] | < 0.5 | > 1.25 | < 2.8
CC(C)C[C@H]1CC(O)(c2cccc(-c3n[nH]c4ncccc34)n2)CCN1 (stereo partly drawn) [Compound 111] | > 0.7 | > 1.25 | > 1.25
CCCC1CN(c2ccc(C(F)(F)F)c(-c3n[nH]c4ncccc34)n2)CCN1 (stereo not drawn) [Compound 113] | < 0.05 | > 1.25 | > 1.25
COc1ccccc1C1CN(c2ccc(C(F)(F)F)c(-c3n[nH]c4ncccc34)n2)CCN1 (stereo not drawn) [Compound 114] | < 0.5 | > 1.25 | > 1.25
Fc1cccc(C2CN(c3ccc(C(F)(F)F)c(-c4n[nH]c5ncccc45)n3)CCN2)c1 (stereo not drawn) [Compound 115] | < 0.05 | < 2.8 | < 2.8
C[C@H]1CN(c2ccc(C(F)(F)F)c(-c3n[nH]c4ncccc34)n2)CCN1 [Compound 116] | < 0.5 | > 1.25 | < 2.8
C[C@@H]1CN(c2ccc(C(F)(F)F)c(-c3n[nH]c4ncccc34)n2)CCN1 [Compound 117] | < 0.5 | > 1.25 | > 1.25
CC(C)C[C@H]1CN(c2cccc(-c3n[nH]c4ncccc34)n2)CC[C@H]1N [Compound 118] | < 0.05 | < 2.8 | < 0.5
CC(F)(F)CC1CN(c2ccc(C(F)(F)F)c(-c3n[nH]c4ncccc34)n2)CCN1 (stereo not drawn) [Compound 119] | < 0.5 | > 1.25 | > 1.25
FC(F)(F)c1ccc(N2CC3CCC(C2)N3)nc1-c1n[nH]c2ncccc12 [Compound 120] | < 0.5 | > 1.25 | < 2.8
FC(F)(F)c1ccc(N2CCN[C@@H](Cc3ccccc3)C2)nc1-c1n[nH]c2ncccc12 [Compound 121] | < 0.5 | > 1.25 | > 1.25
NC1CCCN(c2ccc(C(F)(F)F)c(-c3n[nH]c4ncccc34)n2)C1 (stereo not drawn) [Compound 122] | > 0.7 | > 1.25 | > 1.25
CCCC1CN(c2ccc(Cl)c(-c3n[nH]c4ncccc34)n2)CCN1 (stereo not drawn) [Compound 123] | < 0.05 | > 1.25 | < 2.8
Cc1ccccc1C1CN(c2ccc(C(F)(F)F)c(-c3n[nH]c4ncccc34)n2)CCN1 (stereo not drawn) [Compound 124] | < 0.5 | > 1.25 | > 1.25
NC1CCN(c2ccc(C(F)(F)F)c(-c3n[nH]c4ncccc34)n2)C1 (stereo not drawn) [Compound 125] | < 2.8 | > 1.25 | > 1.25
NC1CCN(c2ccc(C(F)(F)F)c(-c3n[nH]c4ncccc34)n2)CC1 [Compound 126] | < 0.5 | > 1.25 | > 1.25
NCC1CCN(c2ccc(C(F)(F)F)c(-c3n[nH]c4ncccc34)n2)CC1 [Compound 127] | > 0.7 | > 1.25 | > 1.25
NCC1CCCN(c2ccc(C(F)(F)F)c(-c3n[nH]c4ncccc34)n2)C1 (stereo not drawn) [Compound 128] | > 0.7 | > 1.25 | > 1.25
FC(F)(F)c1ccc(N2CCN[C@@H](c3ccccc3)C2)nc1-c1n[nH]c2ncccc12 [Compound 129] | < 0.05 | < 2.8 | < 2.8
CC(C)C[C@H]1CN(c2cccc(-c3n[nH]c4ncccc34)n2)CC[C@@H]1N [Compound 130] | < 0.05 | < 2.8 | < 0.5
CC(C)C[C@H]1CN(c2nc(-c3n[nH]c4ncccc34)ccc2F)CCN1 [Compound 131] | < 0.05 | < 2.8 | < 2.8
CC(C)CC1(C)CN(c2nc(-c3n[nH]c4ncccc34)ccc2F)CCN1 (stereo not drawn) [Compound 132] | < 0.05 | < 2.8 | < 0.5
Cc1ccc(C2CN(c3ccc(C(F)(F)F)c(-c4n[nH]c5ncccc45)n3)CCN2)cc1 (stereo not drawn) [Compound 133] | < 0.5 | > 1.25 | > 1.25
Cc1cccc(C2CN(c3ccc(C(F)(F)F)c(-c4n[nH]c5ncccc45)n3)CCN2)c1 (stereo not drawn) [Compound 134] | < 0.05 | < 2.8 | < 2.8
CC(C)(O)[C@H]1CN(c2cccc(-c3n[nH]c4ncccc34)n2)CCN1 [Compound 136] | < 0.05 | > 1.25 | < 0.5
CC(C)C[C@@H]1CN(c2ccc(C(F)(F)F)c(-c3n[nH]c4ncccc34)n2)CC[C@@H]1N [Compound 138] | < 0.05 | < 2.8 | < 0.5
CC(C)(C)C[C@H]1CN(c2cccc(-c3n[nH]c4ncccc34)n2)CCN1 [Compound 139] | < 0.05 | < 2.8 | < 0.05

SMILES | Ki (PKC theta kinase) [µM] | Ki (PKC alpha kinase) [µM] | Ki (PKC delta kinase) [µM]
CC(C)(C)C[C@H]1CN(c2ccc(C(F)(F)F)c(-c3n[nH]c4ncccc34)n2)CCN1 [Compound 140] | < 0.05 | > 1.25 | > 1.25
CC(C)(C)C[C@H]1CN(c2ccc(Cl)c(-c3n[nH]c4ncccc34)n2)CCN1 [Compound 141] | < 0.05 | < 2.8 | < 0.5
CC(C)(C)C[C@H]1CN(c2ccc(F)c(-c3n[nH]c4ncccc34)n2)CCN1 [Compound 142] | < 0.05 | > 1.25 | < 0.5
CC(C)C(F)(F)C1CN(c2cccc(-c3n[nH]c4ncccc34)n2)CCN1 (stereo not drawn) [Compound 143] | < 0.5 | > 1.25 | < 2.8
CC(C)C[C@H]1CN(c2cccc(-c3n[nH]c4ncccc34)n2)CC[C@H]1O [Compound 144] | < 0.05 | > 1.25 | < 2.8
CC(C)C[C@H]1CN(c2cccc(-c3n[nH]c4ncccc34)n2)CC[C@@H]1O [Compound 145] | < 0.5 | > 1.25 | > 1.25
CC(C)C[C@H]1CC(F)(c2cccc(-c3n[nH]c4ncccc34)n2)CCN1 (stereo partly drawn) [Compound 146] | < 0.5 | > 1.25 | < 2.8
CCOC[C@H]1CN(c2cccc(-c3n[nH]c4ncccc34)n2)CCN1 [Compound 147] | < 0.5 | > 1.25 | > 1.25
CC(C)(F)C1CN(c2cccc(-c3n[nH]c4ncccc34)n2)CCN1 (stereo not drawn) [Compound 148] | < 0.05 | > 1.25 | < 0.5
CC(C)C[C@H]1CN(c2ccc(Cl)c(-c3n[nH]c4ncccc34)n2)CC[C@H]1N [Compound 149] | < 0.05 | < 0.5 | < 0.5
CC(C)C(F)(F)C1CN(c2ccc(C(F)(F)F)c(-c3n[nH]c4ncccc34)n2)CCN1 (stereo not drawn) [Compound 150] | < 0.5 | > 1.25 | > 1.25
CC(C)(F)CC1CN(c2ccc(F)c(-c3n[nH]c4ncccc34)n2)CCN1 (stereo not drawn) [Compound 151] | < 0.05 | > 1.25 | < 0.5
CC(C)C[C@H]1CN(c2ccc(F)c(-c3n[nH]c4ncccc34)n2)CC[C@H]1N [Compound 152] | < 0.05 | < 0.5 | < 0.5
OCC1CN(c2cccc(-c3n[nH]c4ncccc34)n2)CCN1 (stereo not drawn) [Compound 153] | < 0.5 | < 2.8 | < 0.5
CCC(O)(CC)C1CN(c2cccc(-c3n[nH]c4ncccc34)n2)CCN1 (stereo not drawn) [Compound 154] | < 0.05 | < 2.8 | < 0.5
CC(F)(F)CC1CN(c2ccc(F)c(-c3n[nH]c4ncccc34)n2)CCN1 (stereo not drawn) [Compound 155] | < 0.05 | > 1.25 | < 0.5
OC1([C@@H]2CN(c3nc(-c4n[nH]c5ncccc45)c(F)cc3F)CCN2)CC1 [Compound 156] | < 0.001 | > 1.25 | < 0.5
C1=C(c2cccc(-c3n[nH]c4ncccc34)n2)CCNC1 [Compound 157] | < 0.5 | > 1.25 | > 1.25
c1cc(-c2n[nH]c3ncccc23)nc(C2CCNCC2)c1 [Compound 159] | < 0.5 | < 2.8 | < 0.5
CCC(C)(O)C1CN(c2cccc(-c3n[nH]c4ncccc34)n2)CCN1 (stereo not drawn) [Compound 160] | < 0.05 | < 2.8 | < 0.5
CCC(C)(O)C1CN(c2ccc(F)c(-c3n[nH]c4ncccc34)n2)CCN1 (stereo not drawn) [Compound 161] | < 0.05 | > 1.25 | < 0.5
c1cc(-c2n[nH]c3ncccc23)nc(N2CCN[C@@H](CC3CC3)C2)c1 [Compound 162] | < 0.05 | < 2.8 | < 0.5
Fc1ccc(N2CCN[C@@H](CC3CC3)C2)nc1-c1n[nH]c2ncccc12 [Compound 163] | < 0.05 | > 1.25 | > 1.25
CC(O)C1CN(c2cccc(-c3n[nH]c4ncccc34)n2)CCN1 (stereo not drawn) [Compound 164] | < 0.05 | > 1.25 | < 0.5
FC(F)(F)c1ccc(N2CCN[C@@H](CC3CC3)C2)nc1-c1n[nH]c2ncccc12 [Compound 165] | < 0.5 | > 1.25 | > 1.25
O=C1CNCCN1c1cccc(-c2n[nH]c3ncccc23)n1 [Compound 166] | > 0.7 | > 1.25 | > 1.25
